According to ChEMBL document CHEMBL1201862, “PubChem BioAssay data set” (2004):
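Step 1: Grow cells in 96-well plates. Step 2: Expose to compound for 48 hours at 5 concentrations. Step 3: Interpolate endpoints linearly; if unreached, use highest concentration. GI50: concentration for 50% inhibition of growth.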 The source made the active and inactive calls. Rule as the data show it: active = GI50 up to about 1.1 µM and inactive = higher.

Key:
Assay in all cases: inhibition of tumour cell growth, NCI panel, 48 h
NCI/ADR-RES = test system: NCI/ADR-RES
786-0 = test system: 786-0
SNB-75 = test system: SNB-75
OVCAR-4 = test system: OVCAR-4
Hs-578T = test system: Hs-578T
SK-MEL-28 = test system: SK-MEL-28
HL-60 = test system: HL-60
SK-MEL-2 = test system: SK-MEL-2
SK-MEL-5 = test system: SK-MEL-5
K562 = test system: K562
M14 = test system: M14
SF-295 = test system: SF-295
NCI-H23 = test system: NCI-H23
UACC-257 = test system: UACC-257
ACHN = test system: ACHN
RPMI-8226 = test system: RPMI-8226
A549 = test system: A549
SK-OV-3 = test system: SK-OV-3
EKVX = test system: EKVX
HCT-116 = test system: HCT-116
MDA-MB-231 = test system: MDA-MB-231
OVCAR-3 = test system: OVCAR-3
SN12C = test system: SN12C
HCC 2998 = test system: HCC 2998
OVCAR-5 = test system: OVCAR-5
CCRF-CEM = test system: CCRF-CEM
COLO 205 = test system: COLO 205
MDA-N = test system: MDA-N
HOP-92 = test system: HOP-92
MCF7 = test system: MCF7
HCT-15 = test system: HCT-15
UACC-62 = test system: UACC-62
HT-29 = test system: HT-29
KM12 = test system: KM12
T47D = test system: T47D
U-251 = test system: U-251
OVCAR-8 = test system: OVCAR-8
NCI-H460 = test system: NCI-H460
HOP-62 = test system: HOP-62
MDA-MB-435 = test system: MDA-MB-435
CAKI-1 = test system: CAKI-1
SF-268 = test system: SF-268
SNB-19 = test system: SNB-19
Malme-3M = test system: Malme-3M
DU-145 = test system: DU-145
RXF 393 = test system: RXF 393
IGROV-1 = test system: IGROV-1
MOLT-4 = test system: MOLT-4
LOX IMVI = test system: LOX IMVI
SW-620 = test system: SW-620
SF-539 = test system: SF-539
UO-31 = test system: UO-31
NCI-H226 = test system: NCI-H226
PC-3 = test system: PC-3
TK-10 = test system: TK-10
SR = test system: SR
A498 = test system: A498
NCI-H522 = test system: NCI-H522

CC(C)CC(NC(=O)C(O)C(N)Cc1ccccc1)C(=O)O (stereo not given)
GI50 (NCI/ADR-RES): > 100 µM (inactive) | GI50 (786-0): > 100 µM (inactive) | GI50 (SNB-75): > 100 µM (inactive) | GI50 (OVCAR-4): > 100 µM (inactive) | GI50 (Hs-578T): > 100 µM (inactive) | GI50 (SK-MEL-28): > 100 µM (inactive) | GI50 (HL-60): > 100 µM (inactive) | GI50 (SK-MEL-2): > 100 µM (inactive) | GI50 (SK-MEL-5): > 100 µM (inactive) | GI50 (K562): > 100 µM (inactive) | GI50 (M14): > 100 µM (inactive) | GI50 (SF-295): > 100 µM (inactive) | GI50 (NCI-H23): > 100 µM (inactive) | GI50 (UACC-257): > 100 µM (inactive) | GI50 (ACHN): > 100 µM (inactive) | GI50 (RPMI-8226): > 100 µM (inactive) | GI50 (A549): > 100 µM (inactive) | GI50 (SK-OV-3): > 100 µM (inactive) | GI50 (EKVX): > 100 µM (inactive) | GI50 (HCT-116): > 100 µM (inactive) | GI50 (MDA-MB-231): > 100 µM (inactive) | GI50 (OVCAR-3): > 100 µM (inactive) | GI50 (SN12C): > 100 µM (inactive) | GI50 (HCC 2998): > 100 µM (inactive) | GI50 (OVCAR-5): > 100 µM (inactive) | GI50 (CCRF-CEM): > 100 µM (inactive) | GI50 (COLO 205): > 100 µM (inactive) | GI50 (MDA-N): > 100 µM (inactive) | GI50 (HOP-92): > 100 µM (inactive) | GI50 (MCF7): > 100 µM (inactive) | GI50 (HCT-15): > 100 µM | GI50 (UACC-62): > 100 µM (inactive) | GI50 (HT-29): > 100 µM (inactive) | GI50 (KM12): > 100 µM (inactive) | GI50 (T47D): > 100 µM (inactive) | GI50 (U-251): > 100 µM (inactive) | GI50 (OVCAR-8): > 100 µM (inactive) | GI50 (NCI-H460): > 100 µM (inactive) | GI50 (HOP-62): > 100 µM (inactive) | GI50 (MDA-MB-435): > 100 µM (inactive) | GI50 (CAKI-1): > 100 µM (inactive) | GI50 (SF-268): > 100 µM (inactive) | GI50 (SNB-19): > 100 µM (inactive) | GI50 (Malme-3M): > 100 µM (inactive) | GI50 (DU-145): > 100 µM (inactive) | GI50 (RXF 393): > 100 µM (inactive) | GI50 (IGROV-1): > 100 µM (inactive) | GI50 (MOLT-4): > 100 µM (inactive) | GI50 (LOX IMVI): > 100 µM (inactive) | GI50 (SW-620): > 100 µM (inactive) | GI50 (SF-539): > 100 µM (inactive) | GI50 (UO-31): 56.4 µM (inactive) | GI50 (NCI-H226): > 100 µM (inactive) | GI50 (PC-3): > 100 µM (inactive) | GI50 (TK-10): > 100 µM (inactive) | GI50 (SR): > 100 µM (inactive)

Cn1cc(C(=O)c2nccc3c2cnc2ccccc23)ccc1=O
GI50 (NCI/ADR-RES): > 100 µM (inactive) | GI50 (786-0): > 100 µM (inactive) | GI50 (SNB-75): 29.4 µM (inactive) | GI50 (OVCAR-4): > 100 µM (inactive) | GI50 (Hs-578T): > 100 µM (inactive) | GI50 (SK-MEL-28): > 100 µM (inactive) | GI50 (HL-60): > 100 µM (inactive) | GI50 (SK-MEL-2): > 100 µM (inactive) | GI50 (SK-MEL-5): 15.3 µM (inactive) | GI50 (K562): > 100 µM (inactive) | GI50 (M14): > 100 µM (inactive) | GI50 (SF-295): > 100 µM (inactive) | GI50 (NCI-H23): > 100 µM (inactive) | GI50 (UACC-257): > 100 µM (inactive) | GI50 (ACHN): 12.2 µM (inactive) | GI50 (RPMI-8226): > 100 µM (inactive) | GI50 (A549): 56.1 µM (inactive) | GI50 (SK-OV-3): > 100 µM (inactive) | GI50 (EKVX): > 100 µM (inactive) | GI50 (HCT-116): 31.9 µM (inactive) | GI50 (MDA-MB-231): > 100 µM (inactive) | GI50 (OVCAR-3): > 100 µM (inactive) | GI50 (SN12C): 59.3 µM (inactive) | GI50 (HCC 2998): > 100 µM (inactive) | GI50 (OVCAR-5): > 100 µM (inactive) | GI50 (A498): > 100 µM (inactive) | GI50 (CCRF-CEM): > 100 µM (inactive) | GI50 (COLO 205): 69.5 µM (inactive) | GI50 (MDA-N): > 100 µM (inactive) | GI50 (HOP-92): > 100 µM (inactive) | GI50 (HCT-15): > 100 µM | GI50 (UACC-62): > 100 µM (inactive) | GI50 (HT-29): > 100 µM (inactive) | GI50 (KM12): > 100 µM (inactive) | GI50 (T47D): > 100 µM (inactive) | GI50 (U-251): > 100 µM (inactive) | GI50 (OVCAR-8): > 100 µM (inactive) | GI50 (NCI-H460): 26.5 µM (inactive) | GI50 (HOP-62): 25.9 µM (inactive) | GI50 (MDA-MB-435): > 100 µM (inactive) | GI50 (CAKI-1): 13.2 µM (inactive) | GI50 (SF-268): > 100 µM (inactive) | GI50 (SNB-19): > 100 µM (inactive) | GI50 (Malme-3M): > 100 µM (inactive) | GI50 (DU-145): > 100 µM (inactive) | GI50 (RXF 393): < 0.01 µM (active) | GI50 (MOLT-4): > 100 µM (inactive) | GI50 (LOX IMVI): > 100 µM (inactive) | GI50 (SW-620): > 100 µM (inactive) | GI50 (SF-539): > 100 µM (inactive) | GI50 (UO-31): 32.1 µM (inactive) | GI50 (NCI-H226): > 100 µM (inactive) | GI50 (PC-3): > 100 µM (inactive) | GI50 (TK-10): > 100 µM (inactive) | GI50 (SR): 8.17 µM (inactive)

O=C(O)CCC1(CCC(=O)O)CCCCCCCCC(CCC(=O)O)(CCC(=O)O)C(=O)C1=O
GI50 (NCI/ADR-RES): > 100 µM (inactive) | GI50 (786-0): > 100 µM (inactive) | GI50 (SNB-75): > 100 µM (inactive) | GI50 (OVCAR-4): > 100 µM (inactive) | GI50 (Hs-578T): > 100 µM (inactive) | GI50 (SK-MEL-28): > 100 µM (inactive) | GI50 (HL-60): > 100 µM (inactive) | GI50 (SK-MEL-2): > 100 µM (inactive) | GI50 (K562): > 100 µM (inactive) | GI50 (M14): > 100 µM (inactive) | GI50 (SF-295): > 100 µM (inactive) | GI50 (NCI-H23): > 100 µM (inactive) | GI50 (UACC-257): > 100 µM (inactive) | GI50 (ACHN): > 100 µM (inactive) | GI50 (RPMI-8226): < 0.01 µM (active) | GI50 (A549): > 100 µM (inactive) | GI50 (SK-OV-3): > 100 µM (inactive) | GI50 (EKVX): > 100 µM (inactive) | GI50 (HCT-116): > 100 µM (inactive) | GI50 (OVCAR-3): > 100 µM (inactive) | GI50 (SN12C): > 100 µM (inactive) | GI50 (HCC 2998): > 100 µM (inactive) | GI50 (OVCAR-5): > 100 µM (inactive) | GI50 (COLO 205): > 100 µM (inactive) | GI50 (HOP-92): > 100 µM (inactive) | GI50 (MCF7): > 100 µM (inactive) | GI50 (HCT-15): > 100 µM | GI50 (UACC-62): > 100 µM (inactive) | GI50 (HT-29): > 100 µM (inactive) | GI50 (KM12): > 100 µM (inactive) | GI50 (T47D): > 100 µM (inactive) | GI50 (U-251): > 100 µM (inactive) | GI50 (OVCAR-8): > 100 µM (inactive) | GI50 (NCI-H460): > 100 µM (inactive) | GI50 (HOP-62): > 100 µM (inactive) | GI50 (MDA-MB-435): > 100 µM (inactive) | GI50 (CAKI-1): > 100 µM (inactive) | GI50 (SF-268): > 100 µM (inactive) | GI50 (SNB-19): > 100 µM (inactive) | GI50 (Malme-3M): > 100 µM (inactive) | GI50 (DU-145): > 100 µM (inactive) | GI50 (LOX IMVI): > 100 µM (inactive) | GI50 (SW-620): > 100 µM (inactive) | GI50 (SF-539): > 100 µM (inactive) | GI50 (NCI-H226): > 100 µM (inactive) | GI50 (PC-3): > 100 µM (inactive) | GI50 (TK-10): > 100 µM (inactive) | GI50 (SR): 84.9 µM (inactive) | GI50 (NCI-H522): > 100 µM (inactive)
